# Test results taken from patent US20100249419A1, “UTILIZATION OF NOVEL COMPOUNDS WITH AMYLOID AFFINITY AND METHOD OF PRODUCING THE SAME” (NIHON MEDI-PHYSICS CO., LTD., priority 2007, published 2010).
# What was measured:
# [1] = system: Salmonella typhimurium TA100; assay: Reverse mutation test (Ames test), TA100; type: cell-based
# Description: (§1) In order to examine gene mutagenicity of Compounds 3, 5 and 8, reverse mutation test using Salmonella typhimurium TA98 and TA100 (hereinafter referred to as Ames test) was conducted.
# (§2) The test was conducted without addition of S9mix and with addition of S9mix. Dimethylsulfoxide (hereinafter referred to as DMSO) was used as a negative control. A positive control was 2-(2-furyl)-3-(5-nitro-2-furyl)acrylamide (hereinafter referred to as AF-2) in case S9mix was not added, and 2-aminoanthracene (hereinafter referred to as 2-AA) in case S9mix was added.
# (§3) As a sample solution to be added to a test plate, each compound was dissolved in DMSO to prepare a solution at a concentration of 50 mg/mL, and further, each solution was diluted with DMSO to prepare a solution with 7 dosage (geometric ratio 3). As a sample solution for preparing a sample of positive control, when TA98 was used as a test strain without addition of S9mix, a solution of AF-2 (compound concentration: 1 μg/mL) in DMSO was prepared; when TA100 was used as a test strain without addition of S9mix, a solution of AF-2 (compound concentration: 0.1 μg/mL) in DMSO was prepared; when TA98 was used as a test strain with addition of S9mix, a solution of 2-AA (compound concentration: 5 μg/mL) in DMSO was prepared; and when TA100 was used as a test strain with addition of S9mix, a solution of 2-AA (compound concentration: 10 μg/mL) in DMSO was prepared.
# (§4) After each sample solution to be examined and a test strain (TA98 or TA100) were mixed together so as to make the addition amount of each sample to be 0.1 mL/plate, the mixture was multilayered using soft agar on a medium of a test plate, and then incubated at 37° C. for 48 hours. Separately, after each sample solution to be examined, S9mix and a test strain were mixed together so as to make the addition amount of each sample to be 0.1 mL/plate, the mixture was multilayered using soft agar on a medium of a test plate, and then incubated at 37° C. for 48 hours. On the other hand, only DMSO was used as a sample solution to perform the same procedure as above for the negative control. […]
# [2] = system: bone marrow cells of Crlj:CD1(ICR) male mouse; assay: Micronucleus test; type: in vivo; details: single oral administration 250-2000 mg/kg, 24 and 48 hours
# Description: In order to study mutagenicity (in vivo) of Compounds 3 and 7, induction of micronucleated polychromatic erythrocyte (hereinafter referred to as MNPCE) was examined using bone marrow cells of Crlj:CD1(ICR) male mouse.
# 0 mg/kg (negative control group), 250, 500, 1000 and 2000 mg/kg (test sample group) were set as doses for the test. Mice were sacrificed 24 and 48 hours after single oral administration, and bone marrow smear was prepared and observed. Further, a single dose of MMC at 2 mg/kg was abdominally administrated in positive control group, mice were sacrificed 24 hours after the administration, and then bone marrow smear was prepared and observed.
# As statistical analysis, significance tests were conducted by Wilcoxon rank sum test for the appearance frequency of MNPCE and the ratio of polychromatic erythrocyte (hereinafter referred to as PCE) to the total red blood cell (hereinafter referred to as RBC) in each administration group concerning the test sample and positive control groups relative to the negative control group and concerning these groups relative to each other where the significance level was set to less than 5% and less than 1%, respectively.
# [3] = system: Salmonella typhimurium TA98; assay: Reverse mutation test (Ames test), TA98; type: cell-based
# Description: as §1, §2, §3, §4
# [4] = biological target: T1, aggregated Aβ (Aβ1-42) amyloid (Homo sapiens, UniProt P05067); assay: In vitro binding test: inhibition of [^125I]3′-I-BTA-0 binding to amyloid
# T1 construct: Aβ1-42 (manufactured by Wako) was dissolved in phosphate buffer (pH 7.4); purchased Wako
# T1 sequence (P05067 672-713): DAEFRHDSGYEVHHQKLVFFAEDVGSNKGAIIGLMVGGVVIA
# Description: Affinity of the present compounds with amyloid was examined by the following in vitro binding tests.
# The measured radioactivity level was defined as the background radioactivity level, and used in the calculation of the inhibition ratio (hereinafter referred to as BG).
# (9) Using the radioactivity levels measured above in (7) and (8), the inhibition ratio was determined by the following formula (1).
# A graph in which values converted by probit transformation from the obtained inhibition ratios were plotted relative to logarithms of concentrations of compounds for evaluation was prepared to obtain an approximate straight line by the least square method.
# [5] = [^11C]-labeled, rats; cited from earlier work
# [6] = International Publication No. WO03/106439; cited from earlier work
# [7] = Transferability into brain and clearance; type: in vivo, male Wistar rats; details: intravenous injection, rats
# Description: Using Compound 1 (Example 10) and Compound 2 (Example 11), a time course change of radioactive accumulation in brain of male Wistar rats (7-week old) was measured.
# A diethyl ether solution of Compound 1 (Example 10) prepared in Example 3, a diethyl ether solution of Compound 2 (Example 11) prepared in Example 6 and a diethyl ether solution of [^123I]-IMPY (Comparative Example 5) prepared in Reference Example 1 were each diluted with 10 mg/mL ascorbic acid-containing physiological saline solution to adjust to a radioactive concentration of 8-12 MBq/mL. 0.05 mL each of the prepared sample solutions was injected under thiopental anesthesia into the tail vein of the rats. The rats were sacrificed by bleeding from abdominal artery, and brains were removed and subjected to measurement of mass of brains and further subjected to measurement of radioactivity (hereinafter referred to as A in this Example) with a single channel analyzer (detector type: SP-20 manufactured by OHYO KOKEN KOGYO Co., Ltd.) 2, 5, 30 and 60 minutes after the injection. Further, the radioactivity level of the rest of the whole body was measured in the same manner as above (hereinafter referred to as B in this Example). Using these measurement results, radioactive distribution per unit weight of brain (% ID/g) at the respective time points were calculated in accordance with the following formula (3).
# Three animals were used for the experiment at the respective time points.
# Using Compound 4 and Compound 6, a time course change of radioactive accumulation in brain of male Wistar rats (7-week old) was measured.
# Compound 4 (Example 22), Compound 6 (Example 23) and a solution of [^123I]-IMPY (Comparative Example 8) prepared above in Reference Example 1 were each diluted with a 10 mg/mL ascorbic acid-containing physiological saline solution to prepare solutions (20-31 MBq/mL in radioactive concentration). 0.05 mL each of the prepared sample solutions was injected under thiopental anesthesia into the tail vein of the respective Wistar rat (7-week old). The rats were sacrificed by bleeding from abdominal artery, and brains were removed and subjected to measurement of mass of brains and further subjected to measurement of radioactivity (hereinafter referred to as A in this Example) with a single channel analyzer (detector type: SP-20 manufactured by OHYO KOKEN KOGYO Co., Ltd.) 2, 5, 30 and 60 minutes after the injection. Further, the radioactivity level of the rest of the whole body was measured in the same manner as above (hereinafter referred to as B in this Example). Using these measurement results, radioactive distribution per unit weight of brain (% ID/g) at the respective time points were calculated in accordance with the following formula (5).
# [8] = Partition coefficient based on the octanol extraction method; type: physicochemical; details: octanol / 10 mmol/L phosphate buffer (pH 7.4)
# Description: Partition coefficients based on the octanol extraction method (hereinafter referred to as log Poctanol) were measured, which are generally known as an indicator of permeability of compounds through the blood-brain barrier (hereinafter referred to as BBB).
# A diethyl ether solution of Compound 1 prepared in Example 3 (Example 8), a diethyl ether solution of Compound 2 prepared in Example 6 (Example 9), and a diethyl ether solution of [^123I]-IMPY prepared in Reference Example 1 (Comparative Example 4) were each diluted with 10 mg/mL ascorbic acid-containing physiological saline solution, and adjusted to a radioactive concentration of 20-30 MBq/mL. To 2 mL of octanol, 10 μL each of the prepared sample solutions was added, 2 mL of 10 mmol/L phosphate buffer (pH 7.4) was added, followed by stirring for 30 seconds. After the mixture was centrifuged with a low-speed centrifuge (2000 rpm×60 min.), the octanol layer and the water layer were sampled each in an amount of 1 mL, and subjected to measurement of radioactivity count with an autowell gamma system (Type: ARC-301B, manufactured by Aloka). Using the obtained radioactivity count, log Poctanol was calculated in accordance with the equation (2).
# A diethyl ether solution (Example 20) of Compound 4 prepared in Example 16, a diethyl ether solution (Example 21) of Compound 6 prepared in Example 19, and a diethyl ether solution (Comparative Example 7) of [^123I]-IMPY were each diluted with a 10 mg/mL ascorbic acid-containing physiological saline solution to adjust to a radioactive concentration of 20-30 MBq/mL. To 2 mL of octanol, 10 μL each of the prepared sample solution was added, and 2 mL of 10 mmol/L phosphate buffer (pH 7.4) was further added, followed by stirring for 30 seconds. After the mixture was centrifuged with a low-speed centrifuge (2000 rpm×60 min.), the octanol layer and the water layer were sampled each in an amount of 1 mL, and subjected to measurement of radioactivity count with an autowell gamma system (Type: ARC-301B, manufactured by Aloka). Using the obtained radioactivity count, logPoctanol was calculated in accordance with the equation (4).
# [9] = biological target: T2, aggregated Aβ (Aβ1-40) injected into amygdaloid nucleus (Homo sapiens, UniProt P05067); assay: Ex vivo autoradiogram using rats of amyloid injected model (Aβ1-40); type: in vivo, male Wistar rat; details: brain slice 60 minutes after tail vein injection
# T2 construct: Aβ1-40 (manufactured by Peptide Institute, INC.) was dissolved in phosphate buffer (pH 7.4); purchased Peptide Institute, INC
# T2 sequence (P05067 672-711): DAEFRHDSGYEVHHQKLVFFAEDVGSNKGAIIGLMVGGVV
# Description: (1) Aβ1-40 (manufactured by Peptide Institute, INC.) was dissolved in phosphate buffer (pH 7.4) and shaken at 37° C. for 72 hours, to obtain a 1 mg/mL suspension of aggregated Aβ (hereinafter referred to as amyloid suspension in this Example).
# (2) 2.5 μL (corresponding to […]) of the amyloid suspension was injected into an amygdaloid nucleus on one side of a male Wistar rat (7-week old). As a control, 2.5 μL of a phosphate buffered physiological saline solution (pH 7.4) was injected into an amygdaloid nucleus on the other side of the rat. The rats were examined 1 day after the injection of the amyloid suspension and the phosphate buffered physiological saline solution (pH 7.4).
# (3) [^123I]-IMPY was dissolved in a 10 mg/mL ascorbic acid-containing physiological saline solution to obtain a sample solution (29 MBq/mL in radioactivity concentration in the sample solution). This solution was injected under thiopental anesthesia into the rat through the tail vein (dosage: 0.5 mL, dosed radioactivity: 14.5 MBq equivalent).
# (4) Brain was removed 60 minutes after the injection to prepare a brain slice of 10 μm in thickness with a microtome (type: CM3050S, manufactured by LEICA). The brain slice was exposed to an imaging plate for 20 hours, and then image analysis was carried out by use of a Bio-imaging Analyzer (type: BAS-2500; manufactured by FUJIFILM Corporation). […]
# [10] = TA100, without addition of S9mix
# [11] = TA98, without addition of S9mix
structure (smiles),measurement,setting,value
"OCCOc1ccc(-c2cn3cc(I)ccc3n2)cc1 [Compound 3, 2-[4′-(2″-hydroxyethoxy)phenyl]-6-iodoimidazo[1,2-a]pyridine]",Mutagenicity,"[1]; TA100, with addition of S9mix",Negative
same,Mutagenicity,[1]; [10],Negative
same,"Mutagenicity (in vivo), induction of MNPCE",[2],negative
same,Mutagenicity,"[3]; TA98, with addition of S9mix",Negative
same,Mutagenicity,[3]; [11],Negative
same,IC50,"[4]; [^125I]3′-I-BTA-0 400 pmol/L, amyloid 1 μmol/L, 22° C., 3 hours",66.9 nM
same,IC50,[4]; unit inferred,< 100 nM
"CNc1ccc(/C=C/c2ccc(O)cc2)cc1 [SB-13, (E)-4-methylamino-4′-hydroxystilbene]",Clearance from normal tissues,[5],it cannot be said that the clearance is sufficiently fast
"OCCCOc1ccc(-c2cn3cc(I)ccc3n2)cc1 [Compound 7, 2-[4′-(3″-hydroxypropoxy)phenyl]-6-iodoimidazo[1,2-a]pyridine]",Mutagenicity,"[1]; TA100, with addition of S9mix",Negative
same,Mutagenicity,[1]; [10],Negative
same,"Mutagenicity (in vivo), induction of MNPCE",[2],negative
same,Mutagenicity,"[3]; TA98, with addition of S9mix",Negative
same,Mutagenicity,[3]; [11],Negative
"CC(=C(C#N)C#N)c1ccc2cc(N(C)CCF)ccc2c1 [FDDNP, 2-(1-{6-[(2-fluoroethyl)(methyl)amino]-2-naphthyl}ethylidene)malononitrile]",Reverse mutation test result,[6],positive
"CN(C)c1ccc(-c2cn3cc(I)ccc3n2)cc1 [IMPY, 6-iodo-2-[4′-(N,N-dimethylamino)phenyl]imidazo[1,2-a]pyridine]",Reverse mutation test result,[6],positive
"CN(C)c1ccc(-c2cn3cc([123I])ccc3n2)cc1 [[^123I]-IMPY, reference compound]",Radioactive distribution per unit weight of brain,"[7]; After 2 min., Table 5",1.19 % ID/g
same,Radioactive distribution per unit weight of brain,"[7]; After 2 min., Table 7",1.19 % ID/g
same,Radioactive distribution per unit weight of brain,"[7]; After 5 min., Table 5",0.97 % ID/g
same,Radioactive distribution per unit weight of brain,"[7]; After 5 min., Table 7",0.97 % ID/g
same,Radioactive distribution per unit weight of brain,"[7]; After 30 min., Table 5",0.23 % ID/g
same,Radioactive distribution per unit weight of brain,"[7]; After 30 min., Table 7",0.23 % ID/g
same,Radioactive distribution per unit weight of brain,"[7]; After 60 min., Table 5",0.09 % ID/g
same,Radioactive distribution per unit weight of brain,"[7]; After 60 min., Table 7",0.09 % ID/g
same,logPoctanol value,"[8]; Table 4, Examples 8-9",1.9
same,logPoctanol value,"[8]; Table 6, Examples 20-21",2.1
same,Accumulation of radioactivity in amygdaloid nucleus on the amyloid-injected side,[9],marked accumulation of radioactivity
